Experimental data: patent publication US6410546B1, “Use of MKC-442 in combination with other antiviral agents” (Triangle Pharmaceuticals, Inc., priority 1997, dated 2002)

Columns and labels:
[1] = tested on: HIV; conditions: as reported in the prior art; cited from earlier work
[2] = tested on: wild-type (drug-sensitive) and several mutant strains of HIV; assay: Cell culture assay systems, inhibition of HIV replication (alone and in drug combinations); type: cell-based
Description: MKC-442, although a nucleoside analogue, functions as a non-nucleoside reverse transcriptase inhibitor. It is considered an allosteric inhibitor because it appears to exert its activity by binding to an “allosteric position”, i.e., one other than the binding site, of the enzyme.

[3] = in vivo; set-up: species or system rats; conditions: rat
Description: In rats, for example, the concentration of MKC-442 in the brain was 100% of that seen in the plasma.

[4] = Phase I study, single escalating doses: pharmacokinetics and tolerance; type: in vivo, HIV-infected volunteers
Description: A Phase I study evaluated the pharmacokinetics and tolerance of single escalating doses of MKC-442 in HIV-infected volunteers.

[5] = tested on: HIV; assay: Phase I/II double-blind, placebo controlled trial of repeated multiple oral doses
Description: Preliminary data from a Phase I/II double-blind, placebo controlled trial designed to evaluate the safety and efficacy of repeated multiple oral doses of MKC-442 in HIV-infected patients has now also been evaluated. A total of 49 patients were treated with MKC-442 for up to two months. Doses ranging from 100 mg to 1000 mg twice a day were given to groups of six to eight patients at each dosage level.

SMILES	activity against HIV [1]	toxicity [1]	combination effect on HIV replication ([2]; three drug combination with AZT and saquinavir)	combination effect on HIV replication ([2]; two drug combination with AZT)	combination effect on HIV replication ([2]; two drug combination with DDI)	potency compared with nevirapine ([2]; wild-type and mutant strains of HIV)	ability to inhibit HIV replication ([2]; wild-type and mutant strains resistant to established non-nucleoside reverse transcriptase inhibitors)	Kp [3]	penetration into the central nervous system [3]	oral bioavailability ([3]; po)	concentrations of the drug in the plasma ([4]; groups receiving higher doses, compared with levels required to suppress 90% of the virus in culture)	tolerance ([4]; single escalating doses, HIV-infected volunteers)	viral load reduction (average) ([5]; 705 mg and 1000 mg twice a day, all patients, after one week)	tolerability ([5]; over 308 patient-weeks of drug exposure, 100 mg to 1000 mg twice a day)
Nc1ccn(C2CSC(CO)O2)c(=O)n1 (racemic) [BCH-189, 2-hydroxymethyl-5-(cytosin-1-yl)-1,3-oxathiolane]	approximately the same activity against HIV as AZT	little toxicity												
Nc1nc(=O)n([C@@H]2CS[C@H](CO)O2)cc1F (relative stereo) [FTC, cis-2-hydroxymethyl-5-(5-fluorocytosin-1-yl)-1,3-oxathiolane]	potent HIV activity													
CCOCn1c(Cc2ccccc2)c(C(C)C)c(=O)[nH]c1=O [MKC-442, 6-benzyl-1-(ethoxymethyl)-5-isopropyluracil]			synergistic inhibition	synergistic inhibition	synergistic inhibition	greater potency than nevirapine	retained much of its ability to inhibit HIV replication	1	excellent	good	mich higher than the levels required to suppress 90% of the virus in culture	generally well tolerated	96%	well tolerated
